Results published in PubChem BioAssay (NCI).
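Exposure lasted 48 hours, with cells grown in 96-well plates and compounds tested at five concentrations. GI50 = concentration required for 50% inhibition of growth. The concentration for full growth arrest is given as TGI.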

Experiments:
Assay in all cases: NCI-60 cell line screen, 48 h
[1] = test system: HT29 colon
[2] = test system: CAKI-1 renal
[3] = test system: SNB-75 CNS
[4] = test system: OVCAR-5 ovarian
[5] = test system: A498 renal
[6] = test system: EKVX NSCLC
[7] = test system: MDA-N
[8] = test system: NCI-H522 lung
[9] = test system: ACHN renal
[10] = test system: SF-295 CNS
[11] = test system: HOP-62 NSCLC
[12] = test system: M14 melanoma
[13] = test system: IGROV1 ovarian
[14] = test system: SN12C renal
[15] = test system: MCF7 breast
[16] = test system: A549 NSCLC
[17] = test system: SR leukemia
[18] = test system: SK-OV-3 ovarian

| Structure (SMILES) | TGI [1] [µM] | TGI [2] [µM] | TGI [3] [µM] | TGI [4] [µM] | TGI [5] [µM] | TGI [6] [µM] | TGI [7] [µM] | TGI [8] [µM] | TGI [9] [µM] | TGI [10] [µM] | TGI [11] [µM] | TGI [12] [µM] | TGI [13] [µM] | TGI [14] [µM] | TGI [15] [µM] | TGI [16] [µM] | GI50 [11] [µM] | TGI [17] [µM] | GI50 [14] [µM] | TGI [18] [µM] |
| --- | --- | --- | --- | --- | --- | --- | --- | --- | --- | --- | --- | --- | --- | --- | --- | --- | --- | --- | --- | --- |
| O=C(/C=C\c1ccccc1)Oc1ccc(/C=C2\CCCCC2=O)cc1 | 31.7 | 97.9 | > 100 | > 100 | > 100 | > 100 | > 100 | > 100 | > 100 | > 100 | > 100 | > 100 | > 100 | > 100 | > 100 | > 100 |  |  |  |  |
| COc1ccc(OC)c(C#Cc2ccc(OC)c(C(=O)NCCc3ccc(F)cc3)c2)c1 | > 100 | > 100 |  | > 100 | > 100 | > 100 |  | > 100 | > 100 | > 100 | > 100 | > 100 | > 100 | > 100 | > 100 | > 100 | 4.94 | > 100 | > 100 |  |
| Cc1cc(N(CCCCl)CCCCl)ccc1C=Nc1cccc(Cl)c1 | 27.7 |  | 24.7 | 12.6 |  |  |  | 43.7 | 25.8 | 43.5 |  | 60.5 | 35 | 37.1 | 49.9 | 24.7 |  | 24 |  | 61.7 |
| O=C1Nc2cc([N+](=O)[O-])ccc2C(=O)N2CCC[C@@H]12 | > 100 | > 100 | > 100 | > 100 | > 100 | > 100 |  | > 100 | > 100 | > 100 | > 100 | > 100 | > 100 | > 100 | > 100 | > 100 |  | > 100 |  | > 100 |
| COc1ccc2c(c1)CCCN1Cc3cc(OC)c(OC)cc3CC21 (stereo unspecified) | > 100 | > 100 | > 100 | > 100 |  | > 100 | > 100 | > 100 | > 100 | > 100 | > 100 | 44.1 | > 100 | > 100 | > 100 | > 100 |  |  |  | > 100 |
| O=C1Oc2ccccc2C(=O)/C1=C/N1C(=O)N/C(=C\c2cccc(O)c2)C1=O | > 100 | > 100 | > 100 | > 100 |  | > 100 | > 100 |  | > 100 | > 100 | > 100 | > 100 | > 100 | > 100 | > 100 | > 100 |  |  |  | > 100 |
| CCOC(=O)CCC(C(=O)OCC)n1nnc2ccc(Nc3c(C)[n+]([O-])c4cc(Cl)ccc4[n+]3[O-])cc21 (stereo unspecified) | 68.9 | > 100 | > 100 | > 100 |  | > 100 |  | 47 | > 100 | > 100 | > 100 | 40.2 | 79 | 66.9 | 34.3 | > 100 |  | > 100 |  | > 100 |
| Cc1nc2ccccc2c(=O)n1NC(=S)Nc1cccc(Cl)c1 | > 100 | > 100 | > 100 | > 100 | > 100 |  |  | > 100 | > 100 | > 100 | > 100 | > 100 | > 100 | > 100 |  | > 100 |  | > 100 |  | > 100 |
| Cc1ccc2c(c1)SC(c1cc3c(cc1Br)OCO3)S2 (stereo unspecified) | > 31.6 | > 100 | 6.73 | > 31.6 | > 31.6 | > 31.6 |  | > 31.6 | > 31.6 | > 31.6 | > 31.6 | > 31.6 | > 31.6 | > 31.6 |  | > 31.6 |  | > 31.6 |  | > 31.6 |
| NC1=CN(Cc2ccccc2)C2=N/C(=C\c3ccccc3)C(=O)N12 | > 100 | > 100 | > 100 | > 100 | > 100 | > 100 |  | > 100 | > 100 | > 100 | > 100 | > 100 | > 100 | > 100 | > 100 | > 100 |  |  |  | > 100 |
| O=c1cc(-c2ccccc2)oc2ccc(-c3ccc4oc(-c5ccccc5)cc(=O)c4c3)cc12 | > 100 | 46 |  | > 100 | 27.9 | 20.1 | 29 |  | 59.2 | 43.4 | 36.5 | 30.2 | 84.5 |  | 42.1 | 50.6 |  |  |  | > 100 |
